# Patent US20040209273A1, “Plant stress-regulated genes” (priority 2001, published 2004)
# Tests used:
# [1] = tested on: Gpx, SodCc and differential-display genes (mRNA); assay: Northern analysis of gene expression in leaf discs during MV pretreatment and treatment; parameters: species or system Nicotiana tabacum
# Procedure: Total RNA was extracted from frozen leaf discs using TRIzol™ Reagent (Life Technologies, Paisley, UK) according to the manufacturer's instructions. RNA samples were treated prior to electrophoresis and resolved on 1% agarose gel as described by Shaul et al. (1996). The RNA was blotted on nylon membrane (Hybond-N, Amersham International plc., Buckinghamshire, UK or Qiabrane, Qiagen GmbH, Hilden, DE) by capillary blotting (Maniatis et al., 1982). RNA was fixed to the membrane by cross-linking at 150 mJ/cm^2. To check the quality of RNA prior to hybridization, membranes were incubated for 15 minutes in 5% acetic acid and stained for five minutes in 0.04% methylene blue in 0.5 M sodium acetate (pH 5.2), and rinsed with water. After the staining and quality check, membranes were destained in 0.1×SSC (Maniatis et al., 1982) containing 0.5% SDS (w/v). Membranes were hybridized at 65° C. in 50% formamide, 5×SSC, 0.5% SDS and 10% dextran sulphate. ^32P-labeled RNA probes corresponding to the cDNA fragments of GPx (Criqui et al., 1992), SodCc (PSOD 3-5′ fragment; Tsang et al., 1991), SodB (pSOD 2-5′ fragment; Tsang et al., 1991), Cat1 (pCat1A; Willekens et al., 1994), and N. tabacum actin (pRVA12; Aventis Crop Science, BE) were generated by the Riboprobe® System (Promega Corp., Madison, Wis., USA). RNA probes corresponding to cDNA fragments isolated by differential display and cloned into pGEM®-T vector (Promega Corp., Madison, Wis., USA) were generated according to the same protocol. Membranes were washed at 65° C. for 15 minutes each in 3×SSC (Maniatis et al., 1982), 1×SSC and 0.1×SSC (stringent washing) containing 0.5% SDS (w/v). Membranes were exposed to the Storage Phosphor Screen and scanned with the Phosphorlmager 445 SI (Molecular Dynamics Inc., Sunnyvale, Calif., USA). Membranes were reused after stripping of the probe in 0.1×SSC at 85° C. Removal of the probe was checked by autoradiography.
# mRNA levels of several antioxidant genes were tested by Northern analysis during the pretreatment and the treatment. […]
# A. thaliana plants = assay: Growth of Arabidopsis seedlings on plates containing methyl viologen; assay type: in vivo, Arabidopsis thaliana; details: 2 μM MV in ½ MS, 1% sucrose; three to four weeks; transformed lines and C24 control
# Procedure: Eighty plants of an F2-progeny of the transgenic line WV4 (construct pWRKY-VP16-pGSJ780A) were grown on MS+Kanamycine for two and a half weeks. Fifteen kanamycine-resistant seedlings were transferred to plates containing ½ MS, 1% sucrose and 2 μM methyl viologen (paraquat) or to plates containing ½ MS, 1% sucrose for the controls.
# Wild-type Arabidopsis plants were treated in a similar way (except for selection on Kanamycine).
# Performance of plants was followed and pictures were taken after approximately three weeks.
# Segregating populations (F2) of A. thaliana plants (C 24) transformed with WRKY11 under control of the 35S promoter (35S—WRKY11) or with WRKY11 fused to the VP16 activation domain under control of the 35S promoter (35S—WRKY11-VP16) were grown on MS media with kanamycine. Approximately three-week-old seedlings resistant to kanamycine from 3:1 segregating lines (WV4 and WV9 WRKY11-VP16 transformed lines) were transferred to the solid media containing ½ MS salts, 1% sucrose and 2 μM methyl viologen (MV) or on plates without MV. As control plants, untransformed A. thaliana plants were used (C24). After three to four weeks, phenotypic differences were assessed.
# tobacco leaf discs = assay: Ion leakage (solute conductance) from tobacco leaf discs floated on methyl viologen solutions; parameters: species or system Nicotiana tabacum
# Procedure: Nicotiana tabacum cv. Petit Havana SR1 plants were grown in a controlled environment chamber (Weiss Technik, Lindenstruth, DE) under 100 μmol/m^2/s light intensity (photosynthetically active radiation), 16 hours light/8 hours dark regime, relative humidity of 70% and constant temperature of 24° C. The most expanded leaves (11-12 cm long×7-8 cm wide) from five week old plants were used for experiments with methyl viologen.
# Leaf discs (1 cm in diameter) were punched with a cork-bore from the interveinal part of the leaf. Three leaf discs, each originating from different plants, were floated with the abaxial side up on 12 ml of methyl viologen solution in nanopure water or water solely in the case of control. Treatments were performed in controlled environment chambers, under the same conditions as for growth, except as otherwise indicated. Leaf discs for RNA extraction were drained on paper, rapidly frozen in liquid nitrogen and stored at −70° C. Ion leakage from the leaf discs was measured as conductivity of the solution using a conductivity meter (Consort, Turnhout, BE)
# As a first step in studying adaptive responses to oxidative stress in tobacco, we wanted to establish an experimental system in which low doses of oxidant would induce adaptation to higher doses of the same compound. MV, a redox-active compound that enhances superoxide radical (O2 ? ) formation mainly in chloroplasts, was used as an oxidant. In order to determine MV concentrations suited for the induction of adaptation and for the subsequent oxidative stress treatment, sensitivity of tobacco to MV was first determined. Leaf discs were floated on solutions with different concentrations of MV and ion leakage was monitored by measuring the solute conductance. If not scavenged, superoxide generated by MV is converted through redox-reactions into other active oxygen species (AOS) such as hydroxyl radicals that interact with biological molecules and cause oxidative damage (Halliwell and Gutteridge, 1989). Peroxidation of membrane lipids results in loss of membrane integrity that is reflected by enhanced cellular ion leakage. […] These concentrations thus seemed most suitable for inducing adaptation to MV.
# To test whether exposure to sublethal amounts of MV enhances tolerance to higher, normally toxic amounts of this compound, tobacco leaf discs were floated on solutions with less than 0.2 μM MV and subsequently transferred to solutions within the molar range of 0.2-2 μM. Increase in tolerance was assessed by measuring the solute conductance. Leaf discs pretreated with water were taken as nonadapted controls. […]
# tobacco leaf disc mRNA = assay: Differential mRNA display of MV-pretreated versus water-pretreated leaf discs; parameters: species or system Nicotiana tabacum; details: 0.1 μM MV for 17 hours; estimated from sequencing data
# Procedure: Total RNA was treated with DNaseI prior to RT-PCR according to the manufacturer's instructions (Life Technologies, Paisley, UK). Alternatively, up to 20 μg of total RNA was incubated with 5 U DNaseI, 18 U Recombinant Ribonuclease Inhibitor (Promega Corp., Madison, Wis., USA), 1 mM DTT in 80 μl of 10 mM Tris-Cl, pH 8.3, 50 mMKCl and 1.5 mM MgCl2 for 30 minutes at 37° C. RNA was extracted with phenol/CHCl3 (3:1), ethanol precipitated and dissolved in diethyl pyrocarbonate-treated water. mRNA differential display was performed with the RNA map™ kit (Gene Hunter Corp., Nashville, Tenn., USA), AmliTaq DNA polymerase (Perkin-Elmer, Branchburg, N.J., USA) and [^33P] dATP (0.2 μl/20 μl PCR reaction of 111 000 GBq/mmol; Isotopchim, Ganagobie-Peyruis, FR). 3.5 μl of each PCR reaction was mixed with 2 μl of loading dye and denatured at 95° C. for five minutes prior to loading onto 6% DNA sequencing gel. […]
# In order to identify which genes other than those encoding antioxidant enzymes would show altered mRNA levels during oxidative stress adaptation, reference samples placed in water for 17 hours, or samples pretreated with 0.1 μM MV for 17 hours (adapted leaf discs), were compared by differential mRNA display. […] Expression of 16 genes was further analyzed by Northern analysis with RNA from an independent experiment. […]
smiles,measurement,setting,value
"C[n+]1ccc(-c2cc[n+](C)cc2)cc1 [MV, methyl viologen]",expression of all Table 2 genes except DIOX,[1]; after 12 hours of the pretreatment with 0.1 μM MV,induced
same,expression of all Table 2 genes except DIOX,"[1]; during the treatment with 1 μM MV, induction started within the first three hours",further induced
same,Gpx and SodCc mRNA level,[1]; pretreatment with 0.1 μM MV,persistent increase
same,growth of plants on plates containing MV,A. thaliana plants,retarded
same,leaf damage measured as solute conductance versus applied dose,tobacco leaf discs; 0.2-2 μM MV,clearly correlated with the applied dose of MV
same,visible damage of leaf discs,"tobacco leaf discs; concentrations lower than 0.2 μM MV, after 42 hours of incubation",no visible damage
same,increase in ion leakage from the leaf discs in comparison with water-treated controls,"tobacco leaf discs; concentrations lower than 0.2 μM MV, up to 42 hours of incubation",very little increase in ion leakage
same,protection against MV compared to water-pretreated control samples (solute conductance),"tobacco leaf discs; pretreated with 0.1 μM MV for 17 hours, then treated with 1 μM MV for 11 hours, mean",40%
same,total number of genes with altered expression after MV pretreatment,tobacco leaf disc mRNA,~170
